Assay: KI for pyridoxal 5'-phosphate (PLP)-dependent Gamma-amino-N-butyrate transaminase at pH 7.4

- Ki: 6.3 µM
SMILES: NC1C=C(C(=O)O)OC1 (stereo unspecified) [4-Amino-4,5-dihydro-furan-2-carboxylic acid anion]
